pEC50: −log10 of the molar value.
Tests used:
[1] = test system: HCV replicon gt1a_H77; assay: Cell-based HCV replicon assay (TaqMan), genotype 1a (H77); details: Hepatitis C virus, 72 h, replicon 1a (H77); replicon RNA by TaqMan, day 3
Protocol: (§1) Measurement of inhibition by compounds of the present invention was performed using the HCV replicon system. Several different replicons encoding different HCV genotypes or mutations were used. In addition, potency measurements were made using different formats of the replicon assay, including different ways of measurements and different plating formats. See Jan M. Vrolijk et al., A replicons-based bioassay for the measurement of interferons in patients with chronic hepatitis C, 110 J. VIROLOGICAL METHODS 201 (2003); Steven S. Carroll et al., Inhibition of Hepatitis C Virus RNA Replication by 2′-Modified Nucleoside Analogs, 278(14) J. BIOLOGICAL […] 11979 (2003). However, the underlying principles are common to all of these determinations, and are outlined below.
(§2) Compounds of the present invention were assayed for cell-based anti-HCV activity using the following protocol. Replicon cells were seeded at 5000 cells/well in 96-well collagen I-coated Nunc plates in the presence of the test compound. Various concentrations of test compound, typically in 10 serial 2-fold dilutions, were added to the assay mixture, with the starting concentration ranging from 250 μM to 1 μM. The final concentration of DMSO was 0.5%, fetal bovine serum was 5%, in the assay media. Cells were harvested on day 3 by the addition of 1× cell lysis buffer (Ambion cat #8721). The replicon RNA level was measured using real time PCR (TaqMan® assay). The amplicon was located in 5B. The PCR primers were: 5B.2F, […] (SEQ. ID NO. 1); 5B.2R, […] (SEQ. ID NO. 2); the probe sequence was FAM-labeled […] (SEQ. ID NO. 3). GAPDH RNA was used as endogenous control and was amplified in the same reaction as NS5B (multiplex PCR) using primers and VIC-labeled probe recommended by the manufacturer (PE Applied Biosystem). The real-time RT-PCR reactions were run on ABI PRISM 7900HT Sequence Detection System using the following program: 48° C. for 30 minutes, 95° C. for 10 minutes, 40 cycles of 95° C. for 15 sec, 60° C. for 1 minute. The ΔCT values (CT5B-CTGAPDH) were plotted against the concentration of test compound and fitted to the sigmoid dose-response model using XLfit4 (MDL). […] Alternatively, to quantitate the absolute amount of replicon RNA, a standard curve was established by including serially diluted T7 transcripts of replicon RNA in the Taqman assay. All TaqMan® reagents were from PE Applied Biosystems. Such an assay procedure was described in detail in e.g. Malcolm et al., Antimicrobial Agents and Chemotherapy 50: 1013-1020 (2006).
(§3) Wherein gt1a_H77 was prepared as described in Yi et al., J Virol. 2004, 78(15):7904-15; gt1b_con1 was prepared as described in Lohmann et al., Science 1999, 285(5424):110-3; and gt2a_JFH was prepared as described in Kato et al., Gastroenterology. 2003, 125(6):1808-17. Chimeric replicons contain NS5A from patient isolates of genotypes 1a, 1b, 2b, 3a and 4a as indicated.

[2] = test system: HCV replicon gt1b_con1; assay: Cell-based HCV replicon assay (TaqMan), genotype 1b (Con1); details: Hepatitis C virus, 72 h; replicon 1b (Con1); replicon RNA by TaqMan, day 3
Protocol: as §1, §2, §3

[3] = test system: HCV replicon gt2a_JFH; assay: Cell-based HCV replicon assay (TaqMan), genotype 2a (JFH); details: Hepatitis C virus, 72 h, replicon 2a (JFH); replicon RNA by TaqMan, day 3
Protocol: as §1, §2, §3

[4] = test system: HCV chimeric replicon with NS5A of genotype 3a (NC00982); assay: Cell-based HCV replicon assay (TaqMan), chimeric replicon genotype 3a (NC00982); details: Hepatitis C virus, 72 h, read-out: HCV replicon EC50 3a (NC00982), chimeric replicon 3a (NC00982); replicon RNA by TaqMan, day 3
Protocol: as §1, §2, §3

[5] = test system: HCV chimeric replicon with NS5A of genotype 4a (DQ41878); assay: Cell-based HCV replicon assay (TaqMan), chimeric replicon genotype 4a (DQ41878); details: Hepatitis C virus, 72 h, read-out: HCV replicon EC50 4a (DQ41878)
Protocol: as §1, §2, §3

[6] = test system: HCV replicon 1a (Y93H) mutant; assay: Cell-based HCV replicon assay (TaqMan), genotype 1a mutant Y93H; details: Hepatitis C virus, 72 h, read-out: HCV replicon EC50 1a (Y93H)
Protocol: as §1, §2, §3

[7] = test system: HCV replicon 1a (L31V) mutant; assay: Cell-based HCV replicon assay (TaqMan), genotype 1a mutant L31V; details: Hepatitis C virus, 72 h, read-out: HCV replicon EC50 1a (L31V)
Protocol: as §1, §2, §3

SMILES | pEC50 [1] | pEC50 [2] | pEC50 [3] | pEC50 [4] | pEC50 [5] | pEC50 [6] | pEC50 [7]
COC(=O)NC(C(=O)N1CCCC1c1ncc(-c2ccc(-c3ccc4c(ccc5nc([C@@H]6C[Si](C)(C)CN6C(=O)C(NC(=O)OC)C(C)C)[nH]c54)c3)cc2)[nH]1)C(C)C (stereo partly drawn) [Compound 1] | 11.52 | 11.52 | 11.52 | 9.59 | 10.17 |  | 
COC(=O)N[C@H](C(=O)N1C[Si](C)(C)C[C@H]1c1ncc(-c2ccc(-c3ccc4c(ccc5nc([C@@H]6CCCN6C(=O)[C@@H](NC(=O)OC)C(C)C)[nH]c54)c3)cc2-c2ccncc2)[nH]1)C(C)C [Compound 51] | < 9.00 | 10.30 | < 8.00 | < 7.00 |  | 5.07 | 
COC(=O)N[C@H](C(=O)N1C[Si](C)(C)C[C@H]1c1ncc(-c2ccc(-c3ccc4c(ccc5nc([C@@H]6CC(F)CN6C(=O)[C@@H](NC(=O)OC)C(C)C)[nH]c54)c3)cc2)[nH]1)C(C)C (stereo partly drawn) [Compound 53] | 10.80 | 11.52 | 10.59 | 10.05 | 10.00 | 8.00 | 7.19
COC(=O)N[C@H](C(=O)N1CC(F)C[C@H]1c1ncc(-c2ccc(-c3ccc4c(ccc5nc([C@@H]6C[Si](C)(C)CN6C(=O)[C@@H](NC(=O)OC)C(C)C)[nH]c54)c3)cc2)[nH]1)C(C)C (stereo partly drawn) [Compound 55] | 10.15 | 11.22 | 9.82 | 9.10 | 9.46 | 7.57 | 7.21
COC(=O)N[C@H](C(=O)N1C[Si](C)(C)C[C@H]1c1ncc(-c2ccc(-c3ccc4c(ccc5nc([C@@H]6C[C@@H](F)CN6C(=O)[C@@H](NC(=O)OC)C(C)C)[nH]c54)c3)c(F)c2)[nH]1)C(C)C [Compound 57] | 10.17 | > 10.30 | 10.16 | 9.10 | 9.19 | 7.30 | 
COC(=O)N[C@H](C(=O)N1C[Si](C)(C)C[C@H]1c1ncc(-c2ccc(-c3ccc4c(ccc5nc([C@@H]6CC(F)(F)CN6C(=O)[C@@H](NC(=O)OC)C(C)C)[nH]c54)c3)c(F)c2)[nH]1)C(C)C [Compound 58] | 10.52 | 11.70 | 9.82 | 9.10 | 9.44 | 6.93 | 
COC(=O)N[C@H](C(=O)N1CC(F)(F)C[C@H]1c1ncc(-c2ccc(-c3ccc4c(ccc5nc([C@@H]6C[Si](C)(C)CN6C(=O)[C@@H](NC(=O)OC)C(C)C)[nH]c54)c3)c(F)c2)[nH]1)C(C)C [Compound 60] | 10.22 | 11.52 | 10.05 | 8.54 | 9.89 | 7.02 | 
COC(=O)N[C@H](C(=O)N1C[Si]2(CCCC2)C[C@H]1c1ncc(-c2ccc(-c3ccc4c(ccc5nc([C@@H]6CCCN6C(=O)[C@@H](NC(=O)OC)C(C)C)[nH]c54)c3)cc2)[nH]1)C(C)C [Compound 61] | 10.22 | 11.30 | 11.30 | 9.70 | 10.12 | 6.46 | 
COC(=O)N[C@H](C(=O)N1CC(O)C[C@H]1c1ncc(-c2ccc(-c3ccc4c(ccc5nc([C@@H]6C[Si](C)(C)CN6C(=O)[C@@H](NC(=O)OC)C(C)C)[nH]c54)c3)cc2)[nH]1)C(C)C (stereo partly drawn) [Compound 65] | 10.22 | 11.40 | 9.52 | 8.77 |  | 7.36 | 
COC(=O)N[C@H](C(=O)N1CCS(=O)(=O)CC1c1ncc(-c2ccc(-c3ccc4c(ccc5nc([C@@H]6C[Si](C)(C)CN6C(=O)[C@@H](NC(=O)OC)C(C)C)[nH]c54)c3)cc2)[nH]1)C(C)C (stereo partly drawn) [Compound 67] | 9.72 | 10.96 | 9.80 | 8.30 | 9.30 | 6.42 | 
COC(=O)N[C@H](C(=O)N1CC(F)(F)C[C@H]1c1nc2ccc3cc(-c4ccc5c(ccc6nc([C@@H]7C[Si](C)(C)CN7C(=O)[C@@H](NC(=O)OC)C(C)C)[nH]c65)c4)ccc3c2[nH]1)C(C)C [Compound 70] | 10.92 | 11.15 | 10.40 | 9.93 | 10.11 | 7.60 | 
COC(=O)N[C@H](C(=O)N1C[Si](C)(C)C[C@H]1c1ncc(-c2ccc(-c3ccc4c(ccc5nc([C@@H]6CC(F)(F)CN6C(=O)[C@@H](NC(=O)OC)C(C)C)[nH]c54)c3)cc2F)[nH]1)C(C)C [Compound 71] | 9.92 | > 11.70 | 9.35 | 9.05 |  | 6.73 | 
COC(=O)N[C@H](C(=O)N1C[Si](C)(C)C[C@H]1c1ncc(-c2ccc(-c3ccc4c(ccc5nc([C@@H]6CC(F)(F)CN6C(=O)[C@@H](NC(=O)OC)C(C)C)[nH]c54)c3)cn2)[nH]1)C(C)C [Compound 72] | 10.00 | 11.40 | 9.30 | 8.62 |  | 6.61 | 
COC(=O)N[C@H](C(=O)N1CC(C)(C)C[C@H]1c1ncc(-c2ccc(-c3ccc4c(ccc5nc([C@@H]6C[Si](C)(C)CN6C(=O)[C@@H](NC(=O)OC)C(C)C)[nH]c54)c3)cc2)[nH]1)C(C)C [Compound 78] | 10.82 | 12.00 | 10.40 | 9.59 | 9.86 | 7.05 | 
COC(=O)N[C@H](C(=O)N1C[Si](C)(C)C[C@@H]1c1nc2ccc3cc(-c4ccc(-c5cnc([C@@H]6CC(C)(C)CN6C(=O)[C@@H](NC(=O)OC)C(C)C)[nH]5)cc4)ccc3c2[nH]1)C(C)C [Compound 79] | 9.90 | 10.92 | 9.50 | 8.36 | 9.35 | 6.45 | 
CC(C)[C@H](NC(=O)OC1(C)CC1)C(=O)N1CC(C)(C)C[C@H]1c1ncc(-c2ccc(-c3ccc4c(ccc5nc([C@@H]6C[Si](C)(C)CN6C(=O)[C@@H](NC(=O)OC6(C)CC6)C(C)C)[nH]c54)c3)cc2)[nH]1 [Compound 80] | < 9.00 | < 9.00 | < 8.00 | < 7.00 | < 7.00 | < 6.00 | 
CC(C)[C@H](NC(=O)OC1(C)CC1)C(=O)N1C[Si](C)(C)C[C@@H]1c1ncc(-c2ccc(-c3ccc4c(ccc5nc([C@H]6C[C@H](F)CN6C(=O)[C@@H](NC(=O)OC6(C)CC6)C(C)C)[nH]c54)c3)c(F)c2)[nH]1 [Compound 83] | < 9.00 | 7.28 | < 8.00 | < 7.00 | < 7.00 | < 6.00 | 
CC(C)OC(=O)N[C@H](C(=O)N1C[Si](C)(C)C[C@@H]1c1ncc(-c2ccc(-c3ccc4c(ccc5nc([C@H]6C[C@H](F)CN6C(=O)[C@@H](NC(=O)OC(C)C)C(C)C)[nH]c54)c3)c(F)c2)[nH]1)C(C)C [Compound 84] | < 9.00 | 8.62 | < 8.00 | < 7.00 | < 7.00 | < 6.00 | 
COC(=O)N[C@H](C(=O)N1C[Si]2(CCCC2)C[C@H]1c1ncc(-c2ccc(-c3ccc4c(ccc5nc([C@@H]6CC(F)(F)CN6C(=O)[C@@H](NC(=O)OC)C(C)C)[nH]c54)c3)cc2)[nH]1)C(C)C [Compound 89] | 10.27 | 11.22 | 9.30 | 9.56 | 10.46 | 6.68 | 

— patent US8609635B2, “Fused tricyclic silyl compounds and methods of use thereof for the treatment of viral diseases” (priority 2010, dated 2013)
